Read-outs that look alike come from different tables or passages of the source.
Experiments:
A549 cells [1] = system: A549 cells
Zaire Ebola GFP virus [2] = type: cell-based
HIV-1 = type: cell-based
Zaire Ebola GFP virus [3] = type: cell-based; remark: listed apart in the source
Sindbis virus = conditions: cited from earlier work
Ebola virus = system: Ebola virus; design: species or system mice; conditions: mouse, in vivo, ip, 8 mg/kg
HIV-1 Ba-L isolate = type: cell-based; conditions: read-out: IC50 (50% inhibition of virus replication)
HIV-1 NL4-3 isolate = type: cell-based; conditions: read-out: IC50 (50% inhibition of virus replication)
Zaire Ebola GFP virus [4] = conditions: read-out: IC50 for the fit
[5] = mouse, in vivo
A549 cells [6] = system: A549 cells; remark: listed apart in the source

**Q.** What does the source list for `N.N.N.N.N.N.[Cl-].[Cl-].[Cl-].[Co+3]` [Cohex, Hexaamminecobalt(III) chloride]?
**A.** concentration until which no toxic effect appears (A549 cells [1]): about 0.1 mM; viability (leveling off) (293T cells): 70-80%; suppression of viral expression (GFP) (Zaire Ebola GFP virus [2]): ~100%; IC50 (HIV-1): 31.2 µM; CC50 (PBMCs): 833 µM; concentrations at which cytotoxicity was observed (PBMCs): above 100 μM; suppression of viral expression (GFP) (Zaire Ebola GFP virus [3]): ~100%; viability (leveling off) (VeroE6 cells): 70-80%; cell viability and viral expression (Sindbis virus): effective in significantly enhancing cell viability and in depressing viral expression; survival versus PBS treatment (Ebola virus): improved survival rates; IC50 (HIV-1 Ba-L isolate): 33.8 µM; concentration until which no toxic effect appears (HepG2 cells): about 0.1 mM; IC50 (HIV-1 NL4-3 isolate): 28.6 µM; IC50 (Zaire Ebola GFP virus [4]): 380 µM; tolerability [5]: no adverse reactions reported; dead cells by PI staining (A549 cells [6]): almost no change
